{"source": "ChEMBL document CHEMBL5370540", "about": "“Discovery of pyrimidine-5-carboxamide derivatives as novel salt-inducible kinases (SIKs) inhibitors for inflammatory bowel disease (IBD) treatment” (Eur J Med Chem, 2023)", "key": {"[1]": {"assay": "Selectivity ratio of IC50 for SIK1 (unknown origin) to IC50 for SIK2 (unknown origin)"}, "[2]": {"assay": "Selectivity ratio of IC50 for SIK3 (unknown origin) to IC50 for SIK2 (unknown origin)"}, "[3]": {"molecular_target": "Tyrosine-protein kinase ABL2 (Homo sapiens) (UniProt P42684)", "sequence (P42684 whole entry)": "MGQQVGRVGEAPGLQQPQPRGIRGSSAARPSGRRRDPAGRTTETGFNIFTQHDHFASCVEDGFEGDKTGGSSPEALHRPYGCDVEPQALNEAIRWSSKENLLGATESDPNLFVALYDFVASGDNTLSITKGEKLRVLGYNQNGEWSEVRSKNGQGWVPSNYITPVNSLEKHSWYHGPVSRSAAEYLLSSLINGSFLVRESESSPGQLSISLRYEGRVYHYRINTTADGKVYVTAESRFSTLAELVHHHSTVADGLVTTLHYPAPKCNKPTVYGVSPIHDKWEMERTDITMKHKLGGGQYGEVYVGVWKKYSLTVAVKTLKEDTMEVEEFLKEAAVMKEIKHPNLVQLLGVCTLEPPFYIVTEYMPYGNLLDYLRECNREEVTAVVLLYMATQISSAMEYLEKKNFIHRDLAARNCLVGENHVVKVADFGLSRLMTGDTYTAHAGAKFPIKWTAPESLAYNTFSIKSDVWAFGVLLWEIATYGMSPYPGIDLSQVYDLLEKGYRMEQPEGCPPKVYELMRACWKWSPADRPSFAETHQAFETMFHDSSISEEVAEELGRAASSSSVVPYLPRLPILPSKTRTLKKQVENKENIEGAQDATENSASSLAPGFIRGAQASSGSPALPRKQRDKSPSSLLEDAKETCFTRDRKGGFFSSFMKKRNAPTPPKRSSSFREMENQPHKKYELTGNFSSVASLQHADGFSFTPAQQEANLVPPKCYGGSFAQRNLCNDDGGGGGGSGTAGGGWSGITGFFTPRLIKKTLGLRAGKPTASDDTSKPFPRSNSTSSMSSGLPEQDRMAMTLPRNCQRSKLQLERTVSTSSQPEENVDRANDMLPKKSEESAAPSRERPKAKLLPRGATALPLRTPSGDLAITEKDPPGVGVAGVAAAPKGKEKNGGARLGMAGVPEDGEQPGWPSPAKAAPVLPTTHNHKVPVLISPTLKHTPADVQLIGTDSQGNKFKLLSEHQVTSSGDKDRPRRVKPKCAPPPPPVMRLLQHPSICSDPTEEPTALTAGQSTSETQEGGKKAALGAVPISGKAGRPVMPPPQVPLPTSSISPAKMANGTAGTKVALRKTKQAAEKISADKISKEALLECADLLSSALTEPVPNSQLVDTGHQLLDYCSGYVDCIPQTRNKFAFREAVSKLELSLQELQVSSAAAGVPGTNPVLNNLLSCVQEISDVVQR", "assay": "Inhibition of ARG (unknown origin) at 1 uM"}, "[4]": {"molecular_target": "Protein-tyrosine kinase 6 (Homo sapiens) (UniProt Q13882)", "assay": "Inhibition of BRK (unknown origin) at 1 uM"}, "[5]": {"molecular_target": "Tyrosine-protein kinase Fgr (Homo sapiens) (UniProt P09769)", "sequence (P09769 2-529 limits assumed)": "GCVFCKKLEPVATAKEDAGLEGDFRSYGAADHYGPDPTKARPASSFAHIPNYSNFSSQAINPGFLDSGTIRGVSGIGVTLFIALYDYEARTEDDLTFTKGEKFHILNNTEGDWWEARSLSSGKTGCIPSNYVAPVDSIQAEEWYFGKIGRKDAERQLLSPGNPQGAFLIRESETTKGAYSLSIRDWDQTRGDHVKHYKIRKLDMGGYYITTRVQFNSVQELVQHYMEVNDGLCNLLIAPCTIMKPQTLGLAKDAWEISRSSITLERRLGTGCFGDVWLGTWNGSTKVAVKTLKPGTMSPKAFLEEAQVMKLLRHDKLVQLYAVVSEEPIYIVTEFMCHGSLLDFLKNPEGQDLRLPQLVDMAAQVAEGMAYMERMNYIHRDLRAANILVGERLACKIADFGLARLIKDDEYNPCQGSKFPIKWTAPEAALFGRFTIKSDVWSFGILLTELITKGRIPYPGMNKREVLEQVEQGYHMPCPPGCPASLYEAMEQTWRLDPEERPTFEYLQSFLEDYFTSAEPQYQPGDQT", "assay": "Inhibition of Fgr (unknown origin) at 1 uM"}, "[6]": {"molecular_target": "Tyrosine-protein kinase Lck (Homo sapiens) (UniProt P06239)", "assay": "Inhibition of LcK (unknown origin) at 1 uM"}, "[7]": {"molecular_target": "Tyrosine-protein kinase Lyn (Homo sapiens) (UniProt P07948)", "sequence (P07948 2-512 limits assumed)": "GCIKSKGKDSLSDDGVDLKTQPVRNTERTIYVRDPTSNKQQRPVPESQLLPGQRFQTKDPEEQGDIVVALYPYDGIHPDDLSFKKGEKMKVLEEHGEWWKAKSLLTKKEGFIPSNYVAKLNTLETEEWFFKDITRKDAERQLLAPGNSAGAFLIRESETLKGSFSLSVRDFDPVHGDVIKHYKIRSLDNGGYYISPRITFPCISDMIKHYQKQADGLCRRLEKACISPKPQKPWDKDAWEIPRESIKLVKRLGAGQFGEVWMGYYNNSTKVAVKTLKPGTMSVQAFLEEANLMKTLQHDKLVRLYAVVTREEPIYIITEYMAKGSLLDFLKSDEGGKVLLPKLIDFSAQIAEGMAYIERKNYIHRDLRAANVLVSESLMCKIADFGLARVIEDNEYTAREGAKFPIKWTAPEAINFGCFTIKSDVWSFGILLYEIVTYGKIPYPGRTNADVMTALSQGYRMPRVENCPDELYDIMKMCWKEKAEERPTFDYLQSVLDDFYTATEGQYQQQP", "assay": "Inhibition of Lyn (unknown origin) at 1 uM"}, "[8]": {"molecular_target": "Tyrosine-protein kinase Fyn (Homo sapiens) (UniProt P06241)", "sequence (P06241 2-537 limits assumed)": "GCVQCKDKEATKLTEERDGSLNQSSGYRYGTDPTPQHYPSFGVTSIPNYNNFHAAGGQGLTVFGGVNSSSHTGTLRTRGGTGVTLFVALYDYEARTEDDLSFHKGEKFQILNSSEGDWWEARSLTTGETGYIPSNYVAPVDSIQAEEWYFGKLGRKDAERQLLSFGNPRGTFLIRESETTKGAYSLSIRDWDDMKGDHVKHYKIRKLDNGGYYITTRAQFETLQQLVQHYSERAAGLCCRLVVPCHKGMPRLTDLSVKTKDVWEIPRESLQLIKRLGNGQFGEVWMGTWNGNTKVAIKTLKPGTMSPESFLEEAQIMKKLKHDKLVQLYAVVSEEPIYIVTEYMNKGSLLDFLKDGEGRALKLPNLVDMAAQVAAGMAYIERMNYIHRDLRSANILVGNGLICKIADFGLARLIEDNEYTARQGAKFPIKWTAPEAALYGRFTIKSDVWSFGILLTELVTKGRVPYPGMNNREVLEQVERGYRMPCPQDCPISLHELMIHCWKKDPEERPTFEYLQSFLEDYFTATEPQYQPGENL", "assay": "Inhibition of Fyn (unknown origin) at 1 uM"}, "[9]": {"molecular_target": "Cytoplasmic tyrosine-protein kinase BMX (Homo sapiens) (UniProt P51813)", "sequence (P51813 whole entry)": "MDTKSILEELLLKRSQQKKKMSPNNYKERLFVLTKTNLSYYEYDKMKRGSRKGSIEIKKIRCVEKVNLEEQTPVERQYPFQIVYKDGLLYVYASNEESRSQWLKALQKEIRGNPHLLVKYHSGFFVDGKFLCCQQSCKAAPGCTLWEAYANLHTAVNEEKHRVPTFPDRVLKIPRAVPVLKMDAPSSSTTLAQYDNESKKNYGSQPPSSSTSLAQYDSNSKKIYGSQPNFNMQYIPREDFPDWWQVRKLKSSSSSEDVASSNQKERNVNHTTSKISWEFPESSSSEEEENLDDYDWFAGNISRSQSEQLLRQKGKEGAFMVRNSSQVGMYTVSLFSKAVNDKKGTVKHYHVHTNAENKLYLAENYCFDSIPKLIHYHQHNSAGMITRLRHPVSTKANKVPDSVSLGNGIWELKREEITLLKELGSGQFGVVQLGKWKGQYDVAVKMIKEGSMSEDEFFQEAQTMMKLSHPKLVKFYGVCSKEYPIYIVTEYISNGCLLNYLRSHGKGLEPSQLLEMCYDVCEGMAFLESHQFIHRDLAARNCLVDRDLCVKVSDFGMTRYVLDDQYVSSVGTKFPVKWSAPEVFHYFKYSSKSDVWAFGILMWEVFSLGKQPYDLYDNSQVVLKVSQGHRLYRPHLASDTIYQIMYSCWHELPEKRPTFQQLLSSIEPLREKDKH", "assay": "Inhibition of Bmx (unknown origin) at 1 uM"}, "[10]": {"molecular_target": "Tyrosine-protein kinase TXK (Homo sapiens) (UniProt P42681)", "sequence (P42681 whole entry)": "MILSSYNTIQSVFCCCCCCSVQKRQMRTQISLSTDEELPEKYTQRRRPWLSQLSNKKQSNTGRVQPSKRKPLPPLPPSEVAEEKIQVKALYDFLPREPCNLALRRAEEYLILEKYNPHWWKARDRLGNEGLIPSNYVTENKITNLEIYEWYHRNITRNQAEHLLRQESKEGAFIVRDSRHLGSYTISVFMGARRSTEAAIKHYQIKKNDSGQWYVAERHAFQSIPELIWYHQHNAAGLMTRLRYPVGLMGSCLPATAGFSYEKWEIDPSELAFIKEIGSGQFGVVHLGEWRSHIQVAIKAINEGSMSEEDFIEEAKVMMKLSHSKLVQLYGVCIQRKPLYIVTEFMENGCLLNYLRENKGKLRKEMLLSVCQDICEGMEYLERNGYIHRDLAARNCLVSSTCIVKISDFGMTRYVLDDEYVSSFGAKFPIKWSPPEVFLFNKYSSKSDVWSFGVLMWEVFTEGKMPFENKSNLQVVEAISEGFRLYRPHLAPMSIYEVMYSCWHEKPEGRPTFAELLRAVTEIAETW", "assay": "Inhibition of Txk (unknown origin) at 1 uM"}, "[11]": {"assay": "AUC (0 to t) in Sprague-Dawley rat at 5 mg/kg, iv measured upto 24 hrs by LC/MS/MS analysis", "format": "ADME, organism-based", "parameters": "time < 24 hrs, dose 5 mg/kg, route iv", "settings": "in vivo"}, "[12]": {"assay": "Tmax in Sprague-Dawley rat at 5 mg/kg, iv measured upto 24 hrs by LC/MS/MS analysis", "format": "ADME, organism-based", "settings": "in vivo"}, "[13]": {"assay": "Tmax in Sprague-Dawley rat at 10 mg/kg, po measured upto 24 hrs by LC/MS/MS analysis", "format": "ADME, organism-based", "settings": "in vivo"}, "[14]": {"assay": "Clearance in Sprague-Dawley rat at 10 mg/kg, po measured upto 24 hrs by LC/MS/MS analysis", "format": "ADME, organism-based", "settings": "in vivo"}, "[15]": {"molecular_target": "Serine/threonine-protein kinase SIK2 (Mus musculus) (UniProt Q8CFH6)", "sequence (Q8CFH6 whole entry)": "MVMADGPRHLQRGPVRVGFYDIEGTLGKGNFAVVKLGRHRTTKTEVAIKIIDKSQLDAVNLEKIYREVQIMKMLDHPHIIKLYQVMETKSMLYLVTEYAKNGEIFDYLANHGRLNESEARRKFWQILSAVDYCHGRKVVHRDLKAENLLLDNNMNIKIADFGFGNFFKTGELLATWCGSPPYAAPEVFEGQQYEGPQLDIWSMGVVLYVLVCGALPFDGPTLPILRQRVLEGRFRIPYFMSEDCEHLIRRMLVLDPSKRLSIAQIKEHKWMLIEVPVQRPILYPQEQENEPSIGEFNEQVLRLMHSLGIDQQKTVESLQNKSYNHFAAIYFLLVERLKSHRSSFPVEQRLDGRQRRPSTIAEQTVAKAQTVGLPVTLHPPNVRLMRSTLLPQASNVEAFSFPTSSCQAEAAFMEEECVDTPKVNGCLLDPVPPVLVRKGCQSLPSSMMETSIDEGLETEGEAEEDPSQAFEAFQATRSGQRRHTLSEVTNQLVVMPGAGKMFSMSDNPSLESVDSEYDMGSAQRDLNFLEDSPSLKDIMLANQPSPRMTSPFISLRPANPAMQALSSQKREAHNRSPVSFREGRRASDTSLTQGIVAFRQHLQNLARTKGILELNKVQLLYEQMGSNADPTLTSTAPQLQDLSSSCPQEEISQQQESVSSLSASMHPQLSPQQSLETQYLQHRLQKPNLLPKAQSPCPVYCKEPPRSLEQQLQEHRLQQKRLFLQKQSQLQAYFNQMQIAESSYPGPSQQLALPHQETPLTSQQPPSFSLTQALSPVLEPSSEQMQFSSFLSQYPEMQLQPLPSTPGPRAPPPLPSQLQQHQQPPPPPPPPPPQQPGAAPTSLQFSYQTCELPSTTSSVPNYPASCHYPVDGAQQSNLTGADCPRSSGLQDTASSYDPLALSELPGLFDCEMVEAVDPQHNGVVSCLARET", "assay": "Inhibition of SIK2 in C57BL/6J mouse BMDM cells assessed as increase in c-FOS mRNA level at 500 nM preincubated for 1 hr followed by LPS stimulation measured for 1 hr by qPCR analysis", "format": "cell-based", "settings": "time 2.0 hrs"}, "[16]": {"molecular_target": "Serine/threonine-protein kinase SIK2 (Mus musculus) (UniProt Q8CFH6)", "assay": "Inhibition of SIK2 in C57BL/6J mouse BMDM cells assessed as increase in Nurr77 mRNA level at 500 nM preincubated for 1 hr followed by LPS stimulation measured for 1 hr by qPCR analysis", "format": "cell-based", "settings": "time 2.0 hrs"}, "[17]": {"molecular_target": "Serine/threonine-protein kinase SIK2 (Mus musculus) (UniProt Q8CFH6)", "assay": "Inhibition of SIK2 in C57BL/6J mouse BMDM cells assessed as increase in Nurr77 mRNA level at 500 nM preincubated for 1 hr followed by LPS stimulation measured for 2 to 4 hrs by qPCR analysis", "format": "cell-based", "settings": "time 3-5 hrs"}, "[18]": {"molecular_target": "Serine/threonine-protein kinase SIK2 (Mus musculus) (UniProt Q8CFH6)", "assay": "Inhibition of SIK2 in C57BL/6J mouse BMDM cells assessed as increase in IL-12 mRNA level at 500 nM preincubated for 1 hr followed by LPS stimulation measured after 8 hrs by qPCR analysis", "format": "cell-based", "settings": "time 9.0 hrs"}, "BMDM [19]": {"test_system": "BMDM", "assay": "Effect on TLR-stimulated CREB phosphorylation at Ser133 residue in C57BL/6J mouse BMDM cells at 500 nM preincubated for 1 hr followed by LPS stimulation measured upto 60 mins by Western blot analysis", "format": "functional, cell-based", "settings": "time 2.0 hrs"}, "BMDM [20]": {"test_system": "BMDM", "assay": "Upregulation of CREB-dependent gene transcription in C57BL/6J mouse BMDM cells assessed as CRTC3 translocation to nucleus at 500 nM preincubated for 1 hr followed by LPS stimulation measured after 1 hr by immunofluorescence analysis", "format": "functional, cell-based", "settings": "time 2.0 hrs"}, "[21]": {"molecular_target": "Serine/threonine-protein kinase SIK2 (Mus musculus) (UniProt Q8CFH6)", "assay": "Inhibition of SIK2 in C57BL/6J mouse BMDM cells assessed as increase in LIGHT mRNA level at 500 nM preincubated for 1 hr followed by LPS stimulation measured upto 8 hrs by qPCR analysis", "format": "cell-based", "settings": "time <= 9.0 hrs"}, "Mus musculus [22]": {"test_system": "Mus musculus", "assay": "Antiinflammatory activity in DSS-induced colitis C57BL/6J mouse model assessed as increase in body weight at 7.5 to 30 mg/kg, ip", "format": "functional, organism-based", "settings": "dose 7.5-30 mg/kg"}, "Mus musculus [23]": {"test_system": "Mus musculus", "assay": "Antiinflammatory activity in DSS-induced colitis C57BL/6J mouse model assessed as increase in colon length at 7.5 to 30 mg/kg, ip measured after 12 days", "format": "functional, organism-based", "settings": "dose 7.5-30 mg/kg, time 12.0 day"}, "Mus musculus [24]": {"test_system": "Mus musculus", "assay": "Antiinflammatory activity in DSS-induced colitis C57BL/6J mouse model assessed as increase in body weight at 50 to 100 mg/kg, po", "format": "functional, organism-based", "settings": "dose 50-100 mg/kg"}, "Mus musculus [25]": {"test_system": "Mus musculus", "assay": "Antiinflammatory activity in DSS-induced colitis C57BL/6J mouse model assessed as decrease in disease activity index at 50 to 100 mg/kg, po", "format": "functional, organism-based", "settings": "dose 50-100 mg/kg"}, "Mus musculus [26]": {"test_system": "Mus musculus", "assay": "Antiinflammatory activity in DSS-induced colitis C57BL/6J mouse model assessed as increase in colon length at 50 to 100 mg/kg, po measured after 12 days", "format": "functional, organism-based", "settings": "dose 50-100 mg/kg, time 12.0 day"}}, "note": "Active and inactive are the calls of the source. No cut-off for these calls is given here.", "data": [{"smiles": "Cc1cccc(F)c1NC(=O)c1cnc(Nc2ccc(N3CCN(C)CC3)c(F)c2)nc1NC1CCC1", "values": [{"measurement": "Ratio IC50", "setting": "[1]", "result": 3}, {"measurement": "Ratio IC50", "setting": "[2]", "result": 18.3}, {"measurement": "inhibition", "setting": "[3]", "result": "Active"}, {"measurement": "inhibition", "setting": "[4]", "result": "Active"}, {"measurement": "inhibition", "setting": "[5]", "result": "Active"}, {"measurement": "inhibition", "setting": "[6]", "result": "Active"}, {"measurement": "inhibition", "setting": "[7]", "result": "Active"}, {"measurement": "inhibition", "setting": "[8]", "result": "Active"}, {"measurement": "inhibition", "setting": "[9]", "result": "Active"}, {"measurement": "inhibition", "setting": "[10]", "result": "Active"}, {"measurement": "AUC(0-t) at 24 h", "setting": "[11]", "result": 20300, "unit": "ng·h/mL"}, {"measurement": "Tmax", "setting": "[12]", "result": 6, "unit": "min"}, {"measurement": "Tmax", "setting": "[13]", "result": 8, "unit": "h"}, {"measurement": "CL/F", "setting": "[14]", "result": 11.7, "unit": "mL/min/kg"}, {"measurement": "inhibition", "setting": "[15]", "result": "Active"}, {"measurement": "inhibition", "setting": "[16]", "result": "Active"}, {"measurement": "inhibition", "setting": "[17]", "result": "inactive"}, {"measurement": "inhibition", "setting": "[18]", "result": "inactive"}, {"measurement": "Activity", "setting": "BMDM [19]", "result": "inactive"}, {"measurement": "Activity", "setting": "BMDM [20]", "result": "Active"}, {"measurement": "inhibition", "setting": "[21]", "result": "Active"}, {"measurement": "Activity", "setting": "Mus musculus [22]", "result": "Active"}, {"measurement": "Activity", "setting": "Mus musculus [23]", "result": "Active"}, {"measurement": "Activity", "setting": "Mus musculus [24]", "result": "Active"}, {"measurement": "Activity", "setting": "Mus musculus [25]", "result": "Active"}, {"measurement": "Activity", "setting": "Mus musculus [26]", "result": "Active"}]}]}
